Source: patent US8541418B2, “Inhibitors of polo-like kinase” (Elan Pharmaceutical, Inc., priority 2009, dated 2013)

Tests used:
Format in all cases: biochemical
[1] = biological target: PLK1 (Homo sapiens, UniProt P53350); assay: PLK TR-FRET peptide assay, PLK1; conditions: GST-PLK1, 60 min reaction
[2] = biological target: PLK2 (Homo sapiens, UniProt Q9NYY3); assay: PLK TR-FRET peptide assay, PLK2; conditions: PLK TR-FRET peptide assay, GST-PLK2, 60 min reaction; read-out: Plk2 IC50
[3] = biological target: PLK3 (Homo sapiens, UniProt Q9H4B4); assay: PLK TR-FRET peptide assay, PLK3; conditions: GST-PLK3, 15 min reaction, read-out: Plk3 IC50
PLK3, sequence (Q9H4B4 whole entry): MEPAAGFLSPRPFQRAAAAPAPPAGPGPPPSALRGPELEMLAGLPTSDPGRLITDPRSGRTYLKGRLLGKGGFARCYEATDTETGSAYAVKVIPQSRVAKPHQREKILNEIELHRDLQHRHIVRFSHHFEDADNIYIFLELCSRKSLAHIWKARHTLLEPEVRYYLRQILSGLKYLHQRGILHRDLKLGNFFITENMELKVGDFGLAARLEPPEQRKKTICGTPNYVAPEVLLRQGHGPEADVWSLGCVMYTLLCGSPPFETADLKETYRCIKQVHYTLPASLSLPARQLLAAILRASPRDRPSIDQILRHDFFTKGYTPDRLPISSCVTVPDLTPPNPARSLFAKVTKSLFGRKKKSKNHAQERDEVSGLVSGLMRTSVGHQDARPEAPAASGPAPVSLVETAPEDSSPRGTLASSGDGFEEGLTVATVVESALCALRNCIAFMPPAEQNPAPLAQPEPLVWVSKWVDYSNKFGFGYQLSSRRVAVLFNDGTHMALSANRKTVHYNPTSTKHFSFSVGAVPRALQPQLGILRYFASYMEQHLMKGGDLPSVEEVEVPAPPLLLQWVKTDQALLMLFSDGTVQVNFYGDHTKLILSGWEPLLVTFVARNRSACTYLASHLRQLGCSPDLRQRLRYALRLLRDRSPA

PLK1, sequence (P53350 whole entry): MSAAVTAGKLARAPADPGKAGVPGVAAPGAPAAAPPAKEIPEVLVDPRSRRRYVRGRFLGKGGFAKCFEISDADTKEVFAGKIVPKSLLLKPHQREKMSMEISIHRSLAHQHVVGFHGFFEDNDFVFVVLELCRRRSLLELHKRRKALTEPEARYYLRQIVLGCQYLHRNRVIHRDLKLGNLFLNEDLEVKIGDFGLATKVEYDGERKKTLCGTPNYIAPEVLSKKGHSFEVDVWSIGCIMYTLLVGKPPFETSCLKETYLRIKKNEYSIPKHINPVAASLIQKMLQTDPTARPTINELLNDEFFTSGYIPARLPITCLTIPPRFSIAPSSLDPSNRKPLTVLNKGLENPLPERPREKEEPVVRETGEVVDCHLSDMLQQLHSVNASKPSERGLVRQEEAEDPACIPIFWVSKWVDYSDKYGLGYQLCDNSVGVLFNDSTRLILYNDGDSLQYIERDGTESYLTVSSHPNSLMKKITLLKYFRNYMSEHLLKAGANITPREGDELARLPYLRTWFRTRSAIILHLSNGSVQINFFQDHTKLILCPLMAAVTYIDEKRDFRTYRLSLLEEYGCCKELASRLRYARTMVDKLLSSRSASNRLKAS
PLK2, sequence (Q9NYY3 whole entry): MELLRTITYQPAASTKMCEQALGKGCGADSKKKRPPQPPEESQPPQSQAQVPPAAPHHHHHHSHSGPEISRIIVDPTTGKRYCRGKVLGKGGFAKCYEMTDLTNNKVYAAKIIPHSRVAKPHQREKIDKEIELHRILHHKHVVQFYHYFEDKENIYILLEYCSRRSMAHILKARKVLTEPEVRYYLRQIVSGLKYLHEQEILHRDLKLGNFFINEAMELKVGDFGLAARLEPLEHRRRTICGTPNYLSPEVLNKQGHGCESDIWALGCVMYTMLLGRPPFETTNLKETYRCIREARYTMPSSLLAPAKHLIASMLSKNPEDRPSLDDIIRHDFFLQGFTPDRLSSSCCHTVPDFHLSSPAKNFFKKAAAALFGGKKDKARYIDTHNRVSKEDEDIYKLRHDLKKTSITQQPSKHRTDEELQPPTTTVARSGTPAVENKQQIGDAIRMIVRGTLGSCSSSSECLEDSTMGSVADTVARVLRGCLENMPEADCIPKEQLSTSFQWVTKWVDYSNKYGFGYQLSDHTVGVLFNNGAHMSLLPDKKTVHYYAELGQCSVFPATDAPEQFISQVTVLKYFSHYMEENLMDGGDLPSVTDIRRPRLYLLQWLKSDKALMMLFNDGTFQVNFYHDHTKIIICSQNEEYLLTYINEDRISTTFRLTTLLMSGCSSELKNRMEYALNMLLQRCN

| Compound | IC50 [1] | IC50 [2] | IC50 [3] |
| --- | --- | --- | --- |
| CC[C@@H]1C(=O)N(C)c2cnc(-c3ccncc3NC(=O)CC(C)(C)C)nc2N1C(C)C [Example 103, (R)—N-(4-(7-ethyl-8-isopropyl-5-methyl-6-oxo-5,6,7,8-tetrahydropteridin-2-yl)pyridin-3-yl)-3,3-dimethylbutanamide] | 10 to 50 µM | 10 to 50 µM | 10 to 50 µM |
| CC[C@@H]1C(=O)N(C)c2cnc(-c3ccncc3NC(=O)c3ccccc3)nc2N1C(C)C [Example 104, (R)—N-(4-(7-ethyl-8-isopropyl-5-methyl-6-oxo-5,6,7,8-tetrahydropteridin-2-yl)pyridin-3-yl)benzamide] | 1 to 10 µM | < 1 µM | 1 to 10 µM |
| CC[C@@H]1C(=O)N(C)c2cnc(-c3ccncc3CN)nc2N1C1CCCC1 [Example 105, (R)-2-(3-(aminomethyl)pyridin-4-yl)-8-cyclopentyl-7-ethyl-5-methyl-7,8-dihydropteridin-6(5H)-one] | 10 to 50 µM | 10 to 50 µM | > 50 µM |
| CC[C@@H]1C(=O)N(C)c2cnc(-c3ccncc3CNC(=O)OC(C)(C)C)nc2N1C(C)C [Example 107, (R)-tert-butyl (4-(7-ethyl-8-isopropyl-5-methyl-6-oxo-5,6,7,8-tetrahydropteridin-2-yl)pyridin-3-yl)methylcarbamate] | > 50 µM | > 50 µM | > 50 µM |
| CC[C@@H]1C(=O)N(C)c2cnc(-c3ccncc3NC(=O)CC(C)(C)C)nc2N1C1CCCC1 [Example 108, (R)—N-(4-(8-cyclopentyl-7-ethyl-5-methyl-6-oxo-5,6,7,8-tetrahydropteridin-2-yl)pyridin-3-yl)-3,3-dimethylbutanamide] | 10 to 50 µM | 10 to 50 µM | > 50 µM |
| CC[C@@H]1C(=O)N(C)c2cnc(-n3ccnc3N3C(=O)CCC3=O)nc2N1C1CCC1 [Example 112, (R)-1-(1-(8-cyclobutyl-7-ethyl-5-methyl-6-oxo-5,6,7,8-tetrahydropteridin-2-yl)-1H-imidazol-2-yl)pyrrolidine-2,5-dione] | 10 to 50 µM | 10 to 50 µM | > 50 µM |
| CC[C@@H]1C(=O)N(C)c2cnc(-n3ccnc3-n3ccccc3=O)nc2N1C1CCCC1 [Example 113, (R)-8-cyclopentyl-7-ethyl-5-methyl-2-(2-(2-oxopyridin-1(2H)-yl)-1H-imidazol-1-yl)-7,8-dihydropteridin-6(5H)-one] | 1 to 10 µM | < 1 µM | 1 to 10 µM |
| CC[C@@H]1C(=O)N(C)c2cnc(-c3ccncc3NC(=O)OC)nc2N1C1CCCC1 [Example 114, (R)-methyl 4-(8-cyclopentyl-7-ethyl-5-methyl-6-oxo-5,6,7,8-tetrahydropteridin-2-yl)pyridin-3-ylcarbamate] | 1 to 10 µM | < 1 µM | 10 to 50 µM |
| CC[C@@H]1C(=O)N(C)c2cnc(-c3ccncc3NC(C)=O)nc2N1C1CCCC1 [Example 115, (R)—N-(4-(8-cyclopentyl-7-ethyl-5-methyl-6-oxo-5,6,7,8-tetrahydropteridin-2-yl)pyridin-3-yl)acetamide] | 1 to 10 µM | < 1 µM | 10 to 50 µM |
| CC[C@@H]1C(=O)N(C)c2cnc(-c3ccncc3NS(C)(=O)=O)nc2N1C1CCCC1 [Example 116, (R)—N-(4-(8-cyclopentyl-7-ethyl-5-methyl-6-oxo-5,6,7,8-tetrahydropteridin-2-yl)pyridin-3-yl)methanesulfonamide] | 1 to 10 µM | < 1 µM | > 50 µM |
| CC[C@@H]1C(=O)N(C)c2cnc(-c3ccncc3NC(=O)OC)nc2N1C(C)C [Example 117, (R)-methyl 4-(7-ethyl-8-isopropyl-5-methyl-6-oxo-5,6,7,8-tetrahydropteridin-2-yl)pyridin-3-ylcarbamate] | 1 to 10 µM | 1 to 10 µM | > 50 µM |
| CC[C@@H]1C(=O)N(C)c2cnc(-c3ccncc3NC(C)=O)nc2N1C(C)C [Example 118, (R)—N-(4-(7-ethyl-8-isopropyl-5-methyl-6-oxo-5,6,7,8-tetrahydropteridin-2-yl)pyridin-3-yl)acetamide] | > 50 µM | 1 to 10 µM | > 50 µM |
